Measurements from patent US5872107A, “Treatment of urogenital cancer with boron neutron capture therapy” (Emory University, priority 1997, dated 1999).
“Also recorded” adds a separate entry of the source.

Test system: human lymphoma (CEM) cells
Test: Cellular uptake and intracellular phosphorylation, CEM cells
Assay type: cell-based
Source text: Carboranyl-containing nucleosides and oligonucleotides, which are lipophilic and have a high content of boron atoms, are particularly suited for use in BNCT of urogenital tumors. Preferred compounds include 5-carboranyl-2'-deoxyuridine (CDU) and 5-o-carboranyl-1-(2-deoxy-2-fluoro-β-D-arabinofuranosyl)uracil (CFAU). […] The entrapment of this molecule in cells allows for the enhancement of the tumor-to-blood ratio for BNCT. CFAU has increased glycosidic bond stability conferred by the β-fluorine group positioned on the 2'-carbon of the nucleoside.
It has been discovered that boron neutron capture therapy, optionally combined with antisense oligonucleotide therapy, can be used in the treatment of urogenital cancer, and in particular, that of the prostate, bladder, and kidney. Any boron-containing compound that is sufficiently lipophilic to pass through the appropriate urogenital membranes in a quantity high enough to achieve therapy on irradiation with low-energy neutrons can be used. Carboranyl-containing nucleosides and oligonucleotides, which are lipophilic and have a high content of boron atoms, are particularly suited for use in BNCT of urogenital cancer. Preferred compounds include 5-carboranyl-2'-deoxyuridine (CDU) and 5-o-carboranyl-1-(2-deoxy-2-fluoro-β-D-arabinofuranosyl)uracil (CFAU). […] The entrapment of this molecule in cells allows the enhancement of the tumor-to-blood ratio for BNCT. CFAU has increased glycosidic bond stability conferred by the β-fluorine group positioned on the 2'-carbon of the nucleoside.

For 5-carboranyl-2'-deoxyuridine [CDU], the “intracellular formation of CDU 5'-monophosphate (in words)” value (cells not separated (CEM and PBM named)) was “CDU 5'-monophosphate is formed intracellularly; also recorded: CDU-5'-monophosphate is formed intracellularly”, the “intracellular phosphorylation in CEM cells (in words)” value (human lymphoma (CEM) cells) was “intracellularly phosphorylated” and the “uptake by CEM cells (in words)” value (human lymphoma (CEM) cells) was “taken up”.
